Experimental data: patent EP4707280A1, “1,4-CINEOLE DERIVATIVE AND INTERMEDIATE THEREOF, HERBICIDE CONTAINING SAID DERIVATIVE AS ACTIVE INGREDIENT, METHOD FOR USING HERBICIDE, AND METHOD FOR PREPARING AGROCHEMICAL COMPOSITION” (HOKKO CHEMICAL INDUSTRY CO., LTD., priority 2023, dated 2024)

Columns and labels:
Assay type in all cases: in vivo
[1] = system: Digitaria ciliaris; experiment: Test Example 8: herbicidal effect test by stem and leaf treatment in upland field (low dose); conditions: Digitaria ciliaris; 7.5 g per 10 ares; sprayed seven days after sowing, upland soil; 14 days after application; read-out: weed inhibition rate
[2] = system: Echinochloa crus-galli; experiment: as above; conditions: Echinochloa crus-galli; 7.5 g per 10 ares; sprayed seven days after sowing, upland soil; 14 days after application; read-out: weed inhibition rate
[3] = system: Digitaria ciliaris; experiment: Test Example 4: herbicidal effect test by stem and leaf treatment in upland field; conditions: Digitaria ciliaris; 120 g per 10 ares; sprayed seven days after sowing, upland soil; 14 days after application; read-out: weed inhibition rate
[4] = system: Digitaria ciliaris; experiment: Test Example 3: herbicidal effect test by soil application in upland field; conditions: Digitaria ciliaris, 120 g per 10 ares, sprayed one day after sowing, 14 days after application, read-out: weed inhibition rate
Outline: (§1)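 Pre-emergence test: seeds mixed into top 1 cm of alluvial loam upland soil in pots; emulsifiable concentrate diluted in water sprayed on soil one day after sowing at 100 L/10 a, 120 g a.i./10 a. Weed inhibition rate (%) scored at 14 days, in duplicate.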

[5] = system: Echinochloa crus-galli; experiment: as above; conditions: Echinochloa crus-galli, 120 g per 10 ares, sprayed one day after sowing, 14 days after application, read-out: weed inhibition rate
Outline: as §1

[6] = system: Echinochloa crus-galli var. formosensis; experiment: Test Example 6: herbicidal effect test by application during growth period of paddy rice (low dose); conditions: Echinochloa crus-galli; 7.5 g per 10 ares; applied seven days after sowing, flooded pots; 14 days after application; read-out: weed inhibition rate
Outline: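 Paddy-soil pots, flooded ~3 cm after sowing weed seeds at 0-1 cm depth, greenhouse-grown. Seven days after sowing, diluted emulsifiable concentrate applied by dropper at 7.5 g active ingredient per 10 ares. Weed inhibition rate (%) scored 14 days after application, in duplicate.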

[7] = system: Digitaria ciliaris; experiment: Test Example 7: herbicidal effect test by soil application in upland field (low dose); conditions: Digitaria ciliaris, 7.5 g per 10 ares, sprayed one day after sowing, 14 days after application, read-out: weed inhibition rate
Outline: (§2)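 Low-dose soil treatment at 7.5 g a.i. per 10 a, applied as a diluted emulsifiable concentrate sprayed onto the soil surface one day after sowing in upland alluvial loam. Duplicate pots; percent weed inhibition is read 14 days after application.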

[8] = system: Echinochloa crus-galli; experiment: as above; conditions: Echinochloa crus-galli, 7.5 g per 10 ares, sprayed one day after sowing, 14 days after application, read-out: weed inhibition rate
Outline: as §2

[9] = system: Echinochloa crus-galli var. formosensis; experiment: Test Example 2: herbicidal effect test by application during growth period of paddy rice; conditions: Echinochloa crus-galli; 120 g per 10 ares; applied seven days after sowing, flooded pots; 14 days after application; read-out: weed inhibition rate
Outline: (§3)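 Weeds sown into puddled, flooded paddy soil received a post-emergence water application of emulsifiable concentrate at 120 g active ingredient per 10 ares, seven days after sowing. Herbicidal effect was rated 14 days later as inhibition (%).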

[10] = system: Scirpus juncoides; experiment: as above; conditions: Schoenoplectiella juncoides; 120 g per 10 ares; applied seven days after sowing, flooded pots; 14 days after application; read-out: weed inhibition rate
Outline: as §3

[11] = system: Monochoria vaginalis; experiment: as above; conditions: Pontederia vaginalis; 120 g per 10 ares; applied seven days after sowing, flooded pots; 14 days after application; read-out: weed inhibition rate
Outline: as §3

CCO[C@H]1C[C@]2(C)O[C@@]1(C(C)C)C[C@H]2OCc1ccccc1F [1-183, (1S,2R,4R,5S)-5-ethoxy-2-[(2-fluorophenyl)methoxy]-1-methyl-4-isopropyl-7-oxabicyclo[2.2.1]heptane]
≥ 80%: inhibition at 75 g/ha [1] | inhibition at 75 g/ha [2] | inhibition at 1200 g/ha [3] | inhibition at 1200 g/ha [4] | inhibition at 1200 g/ha [5] | inhibition at 75 g/ha [6] | inhibition at 75 g/ha [7] | inhibition at 75 g/ha [8] | inhibition at 1200 g/ha [9] | inhibition at 1200 g/ha [10] | inhibition at 1200 g/ha [11]

CC(C)[C@]12C[C@@H](OCc3c(F)cccc3F)[C@](C)(CC1=O)O2 [2-20, (1R,4S,5R)-5-((2,6-difluorobenzyl)oxy)-1-isopropyl-4-methyl-7-oxabicyclo[2.2.1]heptan-2-one]
≥ 80%: inhibition at 75 g/ha [1] | inhibition at 75 g/ha [2] | inhibition at 1200 g/ha [3] | inhibition at 1200 g/ha [4] | inhibition at 1200 g/ha [5] | inhibition at 75 g/ha [6] | inhibition at 75 g/ha [7] | inhibition at 75 g/ha [8] | inhibition at 1200 g/ha [9] | inhibition at 1200 g/ha [10] | inhibition at 1200 g/ha [11]

CC(C)[C@]12C=C[C@](C)(O1)[C@H](OCc1ccccc1)C2 [3-1, (1R,4S,5R)-4-methyl-5-phenylmethoxy-1-isopropyl-7-oxabicyclo[2.2.1]hept-2-ene]
≥ 80%: inhibition at 75 g/ha [1] | inhibition at 75 g/ha [2] | inhibition at 1200 g/ha [3] | inhibition at 1200 g/ha [4] | inhibition at 1200 g/ha [5] | inhibition at 75 g/ha [6] | inhibition at 75 g/ha [7] | inhibition at 75 g/ha [8] | inhibition at 1200 g/ha [9] | inhibition at 1200 g/ha [10] | inhibition at 1200 g/ha [11]

Cc1ccccc1CO[C@@H]1C[C@]2(C(C)C)O[C@@]1(C)C/C2=N\O [2-191, (1R,4S,5R,E)-1-isopropyl-4-methyl-5-((2-methylbenzyl)oxy)-7-oxabicyclo[2.2.1]heptan-2-one oxime]
≥ 80%: inhibition at 75 g/ha [1] | inhibition at 75 g/ha [2] | inhibition at 1200 g/ha [3] | inhibition at 1200 g/ha [4] | inhibition at 1200 g/ha [5] | inhibition at 75 g/ha [6] | inhibition at 75 g/ha [7] | inhibition at 75 g/ha [8] | inhibition at 1200 g/ha [9] | inhibition at 1200 g/ha [10] | inhibition at 1200 g/ha [11]

CC(C)[C@]12C[C@@H](OCc3c(F)cccc3F)[C@](C)(C[C@@H]1Br)O2 [1-21, (1S,2R,4R,5S)-5-bromo-2-[(2,6-difluorophenyl)methoxy]-1-methyl-4-isopropyl-7-oxabicyclo[2.2.1]heptane]
≥ 80%: inhibition at 75 g/ha [1] | inhibition at 75 g/ha [2] | inhibition at 1200 g/ha [3] | inhibition at 1200 g/ha [4] | inhibition at 1200 g/ha [5] | inhibition at 75 g/ha [6] | inhibition at 75 g/ha [7] | inhibition at 75 g/ha [8] | inhibition at 1200 g/ha [9] | inhibition at 1200 g/ha [10] | inhibition at 1200 g/ha [11]
